Experimental data as given in patent US8735391B2, “Synthesis of functionalized octahydro-isoquinolin-1-one-8-carboxamides, octahydro-isoquinolin-1-one-8-carboxylic esters and analogs, and therapeutic methods” (University of Kansas, priority 2008, dated 2014).
Like-named read-outs stand apart in the source and are kept apart here.

What was measured:
KOR [1] = target: T1, KOR (Homo sapiens, UniProt P41145); test: [35S]GTPγS binding functional agonist assay on membranes of CHO cells expressing hKOR (reference agonist U69593); format: biochemical; parameters: expressed in transfected cells; host or cells: CHO cells, stably transfected; crude membrane fractions; conditions: for KOR agonist (average percent efficacy relative to cognate agonist): test compound at 10 micromolar, N=4, reference agonist = 100%, CHO-cell line expressing hKOR; for Emax values relative to U69593: [35S]GTPγS data-fit top relative to reference agonist U69593; for Emax: read-out: Emax values relative to U69593
Method: The compounds prepared herein were tested for bioactivity with opioid receptors. Agonist assays: Data represent the percent efficacy (relative to cognate agonist) of the test compound at 10 micromolar. The response to a saturating concentration of a reference antagonist or to vehicle (usually none or negligible) is set to 0%. […] The response inhibition elicited by a saturating concentration of reference antagonist is set to 100%; the response inhibition (usually none or negligible) elicited by vehicle is set to 0%. The following tables provide data related to the bioactivity for opioid receptors of the compounds described herein.
Table 6 provides data that represent the average percent efficacy (N=4; relative to cognate agonist) of the test compound at 10 micromolar concentration. The response to a saturating concentration of cognate/reference agonist is set to 100%; the response to a saturating concentration of a reference antagonist or to vehicle (usually none or negligible) is set to 0%. All functional assays are performed on stably transfected CHO-cell lines expressing hKOR, hMOR or hDOR.
(§1) Serial dilutions of the test and reference compounds are made in binding buffer at 2× assay concentration (final assay concentrations ranging from 0.1 nM to 10 μM). Crude membrane fractions (1.8 to 3.5 cm2/well) (prepared from 10-cm plates by harvesting PBS-rinsed monolayers, resuspending and lysing in chilled, hypotonic 50 mM Tris-HCl, pH 7.4, centrifuging at 20,000×g, decanting the supernatant and storing at −80 degrees centigrade; typically, one 10-cm plate provides sufficient material for 24 wells) are resuspended in 1.2 ml of assay buffer containing 20 μM GDP, wheat germ agglutinin (WGA)-coated scintillation proximity beads (2.4 mg), and [35S]GTPγS (300 pM final). The suspension is then added (50 μl/well) to 50 μl of the 2× test or reference compounds (each concentration assayed in triplicate) in flexible transparent PET 96-well plates. The reaction plate is sealed and incubated for 90 min at room temperature, then centrifuged for 5 min at 216×g, and finally loaded into a Wallac MicroBeta TriLux counter. Non-specific [35S]GTPγS binding is assessed at the maximum concentration of reference agonist in the presence of 10 μM antagonist. The background signal is measured at 10 μM reference agonist in the presence of 10 μM unlabeled GTPγS. Raw data (dpm) representing total [35S]GTPγS binding (i.e., specific+non-specific binding) are calculated as a percentage of the maximum response by the reference agonist (in this case U69593).
as §1, with “GTPγS.” for “GTPγS. Raw data (dpm) representing total [35S]GTPγS binding (i.e., specific+non-specific binding) are calculated as a percentage of the maximum response by the reference agonist (in this case U69593).”

KOR [2] = target: T1, KOR; test: Opioid secondary binding, KOR (Tables 4, 5, 8, 9)
MOR = MOR (Homo sapiens, UniProt P35372); test: Opioid secondary binding, MOR (Tables 4, 5, 8)
DOR = DOR (Homo sapiens, UniProt P41143); test: Opioid secondary binding, DOR (Table 4); conditions: Opioid secondary binding activity for Formula 10 analogs
[3] = Opioid secondary binding activity for Formula 10 analogs, read-out: KOR, Ki
[4] = Opioid secondary binding activity for Formula 10 analogs, read-out: MOR, Ki

MOR, sequence (P35372 whole entry): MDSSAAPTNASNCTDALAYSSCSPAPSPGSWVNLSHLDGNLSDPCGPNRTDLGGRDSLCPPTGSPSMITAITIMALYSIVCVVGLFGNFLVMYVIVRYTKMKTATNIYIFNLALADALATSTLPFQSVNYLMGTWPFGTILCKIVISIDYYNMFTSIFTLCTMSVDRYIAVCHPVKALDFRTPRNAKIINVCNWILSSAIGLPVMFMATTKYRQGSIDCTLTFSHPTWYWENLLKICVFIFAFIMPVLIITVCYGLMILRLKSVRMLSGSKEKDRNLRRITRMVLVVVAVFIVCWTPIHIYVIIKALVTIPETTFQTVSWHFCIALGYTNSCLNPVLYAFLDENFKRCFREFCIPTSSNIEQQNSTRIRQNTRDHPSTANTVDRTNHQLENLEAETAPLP
T1 sequence (P41145 whole entry): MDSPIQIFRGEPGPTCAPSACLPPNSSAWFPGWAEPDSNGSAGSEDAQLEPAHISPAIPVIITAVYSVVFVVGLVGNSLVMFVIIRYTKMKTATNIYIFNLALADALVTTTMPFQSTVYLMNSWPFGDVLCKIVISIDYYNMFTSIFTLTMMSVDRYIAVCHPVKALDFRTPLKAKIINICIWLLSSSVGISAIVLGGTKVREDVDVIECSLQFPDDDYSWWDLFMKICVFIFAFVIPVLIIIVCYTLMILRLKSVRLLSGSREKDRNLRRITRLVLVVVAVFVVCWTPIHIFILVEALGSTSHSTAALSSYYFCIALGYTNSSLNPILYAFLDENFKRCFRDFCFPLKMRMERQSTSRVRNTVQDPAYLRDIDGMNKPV
DOR, sequence (P41143 whole entry): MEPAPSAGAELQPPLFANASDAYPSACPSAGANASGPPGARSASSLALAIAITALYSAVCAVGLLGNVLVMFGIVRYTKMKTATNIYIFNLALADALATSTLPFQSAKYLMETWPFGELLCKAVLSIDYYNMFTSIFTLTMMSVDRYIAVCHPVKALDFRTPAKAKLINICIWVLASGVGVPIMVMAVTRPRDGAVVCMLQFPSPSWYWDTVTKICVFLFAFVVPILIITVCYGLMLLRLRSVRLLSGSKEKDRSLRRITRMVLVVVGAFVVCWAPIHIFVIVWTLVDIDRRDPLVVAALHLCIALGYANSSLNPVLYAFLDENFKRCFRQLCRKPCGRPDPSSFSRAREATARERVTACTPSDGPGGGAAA

Row | Structure (SMILES) | KOR agonist (average percent efficacy relative to cognate agonist) (KOR [1]) | Ki (KOR [2]; [3]) | Ki (MOR; [4]) | other results
1 | COc1ccc(NC(=O)[C@@H]2CC=C[C@@H]3CCN(Cc4ccc(Cl)c(Cl)c4)C(=O)[C@@H]32)cc1 (racemic) [compound 8947] | 17.3% | 2.56 µM | 3.49 µM | –
2 | O=C1[C@H]2[C@H](C=CC[C@H]2C(=O)N2CCN(c3ccccc3)CC2)CCN1Cc1ccccc1 (racemic) [compound 8912] | 8% | 4.8 µM | 2.4 µM | Ki (DOR): 3.85 µM
3 | CCCCN1CC[C@H]2C=CC[C@@H](C(=O)Nc3ccccc3)[C@H]2C1=O (racemic) [compound 8940] | 112.1% | 0.677 µM | – | Ki (DOR): 6.11 µM
4 | CCCCN1CC[C@H]2C=CC[C@@H](C(=O)Nc3ccc(Cl)c(C(F)(F)F)c3)[C@H]2C1=O (racemic) [compound 8956] | 118.7% | 0.19 µM | 2.22 µM | –
5 | COc1ccc(CN2CC[C@H]3C=CC[C@@H](C(=O)Nc4ccc(Cl)cc4Cl)[C@H]3C2=O)cc1OC (racemic) [compound 8952] | −2.6% | – | 5.66 µM | –
6 | COc1ccc(CN2CC[C@H]3C=CC[C@@H](C(=O)Nc4ccccc4)[C@H]3C2=O)cc1OC (racemic) [compound 8942] | 5.4% | 3.06 µM | 3.52 µM | Ki (DOR): 4.61 µM
7 | O=C(Nc1cc(C(F)(F)F)ccc1Cl)C1CC=CC2CCN(C3CCCCC3)C(=O)C21 (racemic) [compound 11837] | – | 0.094 µM | – | Emax values relative to U69593 (KOR [1]): 106%; Ki (DOR): 8.02 µM
8 | O=C(Nc1ccc(Cl)c(C(F)(F)F)c1)[C@H]1CC=C[C@H]2CCN(Cc3ccccc3)C(=O)[C@@H]12 [compound 11790] | – | – | – | Emax (KOR [1]): 78%; Ki (KOR [2]): 0.0032 µM; Ki (MOR): 0.208 µM
9 | O=C(Nc1ccc(Cl)c(C(F)(F)F)c1)[C@@H]1CC=C[C@@H]2CCN(Cc3ccccc3)C(=O)[C@@H]21 [compound 11789] | – | – | – | Ki (KOR [2]): 0.132 µM; Ki (MOR): 3.48 µM
10 | O=C(Nc1ccc(Br)c(C(F)(F)F)c1)[C@@H]1CC=C[C@@H]2CCN(CCc3ccccc3)C(=O)[C@@H]21 (racemic) [compound 11875] | – | 2.28 µM | 1.18 µM | –
11 | O=C(NCCc1ccccc1)[C@@H]1CC=C[C@@H]2CCN(Cc3ccc(Cl)c(Cl)c3)C(=O)[C@@H]21 (racemic) [compound 5084] | – | 4.8 µM | 5.19 µM | –
12 | Cc1cc(NC(=O)[C@@H]2CC=C[C@@H]3CCN(Cc4ccccc4)C(=O)[C@@H]32)ccc1Cl (racemic) [compound 11872] | – | 0.086 µM | 2.18 µM | Emax values relative to U69593 (KOR [1]): 123%
13 | O=C(Nc1ccc(Cl)c(C(F)(F)F)c1)[C@@H]1CC=C[C@@H]2CCN(Cc3ccccc3)C(=O)[C@@H]21 (racemic) [compound 8620] | – | – | 3.55 µM | Emax (KOR [1]): 67%; Ki (KOR [2]): 0.0053 µM
14 | O=C(Nc1ccccc1)[C@@H]1CC=C[C@@H]2CCN(Cc3ccc(Cl)c(Cl)c3)C(=O)[C@@H]21 (racemic) [compound 8941] | 79% | 0.259 µM | 2.7 µM | Ki (DOR): 1.11 µM
15 | O=C(NCc1ccc(Cl)c(C(F)(F)F)c1)[C@@H]1CC=C[C@@H]2CCN(CCc3ccccc3)C(=O)[C@@H]21 (racemic) [compound 11874] | – | 0.319 µM | 1.24 µM | –
16 | O=C(NCCc1ccccc1)[C@@H]1CC=C[C@@H]2CCN(Cc3ccccc3)C(=O)[C@@H]21 (racemic) [compound 8916] | 110.6% | 0.561 µM | 4.6 µM | –

Row | Structure (SMILES) | KOR agonist (average percent efficacy relative to cognate agonist) (KOR [1]) | Ki (KOR [2]; [3]) | Ki (MOR; [4]) | other results
17 | O=C(Nc1ccccc1)[C@@H]1CC=C[C@@H]2CCN(C3CCCCC3)C(=O)[C@@H]21 (racemic) [compound 8939] | 133.7% | 0.071 µM | – | Ki (DOR): 8.94 µM
18 | COc1ccc(CNC(=O)[C@@H]2CC=C[C@@H]3CCN(Cc4ccc(Cl)c(Cl)c4)C(=O)[C@@H]32)cc1 (racemic) [compound 8928] | 17.7% | 0.964 µM | 7.4 µM | –
19 | Cc1cc(NC(=O)[C@@H]2CC=C[C@@H]3CCN(CCc4ccccc4)C(=O)[C@@H]32)ccc1Cl (racemic) [compound 11878] | – | 4.12 µM | 1.67 µM | –
20 | O=C(NCc1ccc(Cl)c(C(F)(F)F)c1)[C@@H]1CC=C[C@@H]2CCN(Cc3ccccc3)C(=O)[C@@H]21 (racemic) [compound 11868] | – | 0.455 µM | 2.17 µM | –
21 | COc1ccc(CN2CC[C@H]3C=CC[C@@H](C(=O)Nc4ccc(Cl)c(C(F)(F)F)c4)[C@H]3C2=O)cc1OC (racemic) [compound 8958] | – | – | 2.54 µM | –
22 | COc1ccc(NC(=O)[C@@H]2CC=C[C@@H]3CCN(C4CCCCC4)C(=O)[C@@H]32)cc1 (racemic) [compound 8945] | 54.3% | 1.79 µM | – | Ki (DOR): 5.67 µM
23 | O=C(Nc1ccc(F)c(F)c1)[C@@H]1CC=C[C@@H]2CCN(Cc3ccc(Cl)c(Cl)c3)C(=O)[C@@H]21 (racemic) [compound 5085] | – | 2.96 µM | 4.66 µM | –
24 | O=C(Nc1ccccc1)[C@H]1CC=C[C@H]2CCN(Cc3ccccc3)C(=O)[C@@H]12 [compound 11794] | – | 0.137 µM | 1.66 µM | –
25 | O=C(Nc1cc(C(F)(F)F)ccc1Cl)C1CC=CC2CCN(CCc3ccccc3)C(=O)C21 (racemic) [compound 11849] | – | 1.82 µM | 2.41 µM | –
26 | O=C(OCc1ccccc1)C(Cc1ccccc1)NC(=O)C1CC=CC2CCN(Cc3ccc(Cl)cc3)C(=O)C21 (mixture of isomers) [compound 11813] | – | 1.16 µM | 1.91 µM | –
27 | COc1ccc(CN2CC[C@H]3C=CC[C@@H](C(=O)N4CCN(c5ccccc5)CC4)[C@H]3C2=O)cc1OC (racemic) [compound 8915] | 6.7% | 8.9 µM | 5.54 µM | Ki (DOR): 4.69 µM
28 | O=C(Nc1ccc(Cl)c(C(F)(F)F)c1)C1CCCC2CCN(Cc3ccccc3)C(=O)C21 (racemic) [compound 11478] | – | 0.051 µM | 1.75 µM | –
29 | O=C(Nc1ccc(Cl)c(C(F)(F)F)c1)[C@@H]1CC=C[C@H]2CCN(Cc3ccccc3)C(=O)[C@H]21 [compound 11795] | – | – | 5.42 µM | Ki (KOR [2]): 0.158 µM
30 | O=C(Nc1ccc(Cl)c(C(F)(F)F)c1)[C@@H]1CC=C[C@@H]2CCN(c3ccccc3)C(=O)[C@@H]21 (racemic) [compound 10825] | – | 0.1 µM | – | Emax values relative to U69593 (KOR [1]): 82%
31 | O=C(Nc1ccccc1)[C@@H]1CC=C[C@@H]2CCN(Cc3ccccc3)C(=O)[C@@H]21 (racemic) [compound 8937, 2-Benzyl-N-phenyl-1-oxo-1,2,3,4,4a,7,8,8a-octahydroisoquinoline-8-carboxamide] | 136.6% | 0.146 µM | 2.57 µM | Ki (DOR): 0.85 µM
32 | O=C(Nc1ccc(Br)c(C(F)(F)F)c1)[C@H]1CC=C[C@H]2CCN(Cc3ccccc3)C(=O)[C@@H]12 [11869*] | – | 0.0165 µM | 0.648 µM | Emax (KOR [1]): 68%
